Data as given in US10233195B2, “Anti-fibrotic pyridinones” (InterMune, Inc., priority 2014, dated 2019).

Experiments:
[1] = system: TGF-b induced Endothelin-1 production; test: ET-1 assay: inhibitory effect on TGF-b induced endothelin-1 production; assay type: cell-based; conditions: Homo sapiens, Fibroblast; fibroblasts, stimulant (TGFb, serum, LPA etc), ET-1 in media by ELISA, 4-parameter fit
Method in brief: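 Fibroblasts (primary human lung/dermal, HFL-1, 3T3) serum-starved 0-48 h, preincubated ~30 min with compound, then stimulated (TGFb, serum or LPA) for 16-48 h. Secreted ET-1 measured by ELISA; EC50 from 4-parameter logistic fit, with CC50 from ATPlite in the same wells.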

[2] = system: Fibroblasts (primary human lung and dermal, HFL-1, 3T3 etc); test: Cell proliferation assay (BrdU incorporation); assay type: cell-based; conditions: HFL1, stimulant (LPA, TGFb, serum etc), 50% inhibition of the increase of BrdU incorporation
Method: Assay of Inhibitory Effect on Cell Proliferation (BrdU Incorporation)
Fibroblasts (primary human lung and dermal, HFL-1, 3T3 etc) were plated on a 96-well plate and serum starved for 24-48 hours. The media were then exchanged for media containing stimulants (LPA, TGFb, serum etc) and cultured further for 16-24 hours before BrdU addition. After culturing for another 8 hours, cells were washed with PBS and the amount of BrdU incorporated into the cells was assayed by absorbance at 450 nm using the Cell proliferation ELISA system (RPN250, Amersham LIFE SCIENCE). The difference between the amount of BrdU incorporated in the stimulant-added well and the amount of BrdU incorporated in the well containing no stimulant represented the amount of BrdU incorporation accelerated by stimulant. The increase of BrdU incorporation without the addition of test compounds was set as 100% and the concentration of compound with 50% inhibition in the increase of BrdU incorporation (IC50 value) was determined. The test compounds were added 0-30 min before stimulant addition.
Compounds of some embodiments were prepared according to synthetic methods described herein and assay data obtained for IC50 for BrdU inhibition. The assay data obtained is presented in Table 3, in which A=less than 50 μM, B=greater than or equal to 50 μM and less than or equal to 200 μM; and C=greater than 200 μM.

Structure (SMILES)	EC50 [1] [µM]	IC50 [2] [µM]
Cc1cc(=O)n(-c2ccc(OC(F)(F)F)cc2)cc1-c1cccc2c1OC(C)(C)O2 [Compound 207]	50 to 200	< 50
Cc1c(-c2ccc(=O)n(-c3ccc(OC(F)(F)F)cc3)c2)cnn1C [Compound 391]	< 50	50 to 200
Cn1cc(-c2cn(-c3ccc(OC(F)(F)F)cc3)c(=O)c3c2OCC(=O)N3Cc2ccccc2)cn1 [Compound 50]	> 200	< 50
Cn1cc(-c2cn(-c3ccc(OC(F)(F)F)cc3)c(=O)cc2NCc2ccc(Cl)cc2)cn1 [Compound 406]	50 to 200	< 50
CC(C)n1ccc2c(-c3cnn(C)c3)cn(-c3ccc(OC(F)(F)F)cc3)c(=O)c21 [Compound 647]	< 50	< 50
CCn1ccc2ccn(-c3ccc(OC(F)(F)F)cc3)c(=O)c21 [Compound 610]	< 50	< 50
CCn1ccc2c(-c3cnn(C)c3)cn(-c3ccc(OC(F)(F)F)cc3)c(=O)c21 [Compound 60]	< 50	< 50
CCn1nc2c(-c3cn[nH]c3)cn(-c3ccc(OC(F)(F)F)cc3)c(=O)c2n1 [Compound 620]	< 50	< 50
Cc1cc(=O)n(-c2ccc(OC(F)(F)F)cc2)cc1-c1cccc2c1OC(F)(F)O2 [Compound 415]	< 50	< 50
O=c1cc(NCc2ccccn2)ccn1-c1ccc(OC(F)(F)F)cc1 [Compound 547]	< 50	< 50
Cn1cc(-c2cn(-c3ccc(OC(F)(F)F)cc3)c(=O)c3c2nnn3CCF)cn1 [Compound 684]	50 to 200	< 50
Cn1cc(-c2cn(-c3ccc(OC(F)(F)F)cc3)c(=O)c3[nH]ncc23)cn1 [Compound 588]	> 200	< 50
CCn1ccc2c(-c3ccc(F)cc3)cn(-c3ccc(OC(F)(F)F)cc3)c(=O)c21 [Compound 594]	< 50	< 50
Cn1cc(-c2cn(-c3ccc(OC(F)(F)F)cc3)c(=O)cc2NCc2ccc(Cl)cc2Cl)cn1 [Compound 405]	< 50	< 50
Cc1cc(=O)n(-c2ccc(OC(F)(F)F)cc2)cc1-c1ccc2scnc2c1 [Compound 251]	< 50	< 50
CCOC(=O)n1cc(-c2ccc(=O)n(-c3ccccc3)c2)cn1 [Compound 73]	< 50	> 200
CCn1nnc2c(-c3ccc(F)cc3)cn(-c3ccc(OC(F)(F)F)cc3)c(=O)c21 [Compound 683]	< 50	< 50
Cc1cc(=O)n(-c2ccc(OC(F)(F)F)cc2)cc1-c1cccc2ncsc12 [Compound 263]	< 50	< 50
Cc1cc(=O)n(-c2ccc(OC(F)(F)F)cc2)cc1-c1cccc2c1OCO2 [Compound 203]	< 50	< 50
O=c1cc(O)c(-c2ccc(F)cc2)cn1-c1ccc(OC(F)(F)F)cc1 [Compound 86]	50 to 200	< 50
Cn1cc(-c2cn(-c3ccc(OC(F)(F)F)cc3)c(=O)cc2Oc2ccccc2Cl)cn1 [Compound 414]	< 50	< 50

Structure (SMILES)	EC50 [1] [µM]	IC50 [2] [µM]
Cc1cc(=O)n(-c2ccc(OC(F)(F)F)cc2)cc1-c1cccc2scnc12 [Compound 261]	> 200	< 50
CCOc1ccc(-n2cc(-c3ccnnc3)c(C)cc2=O)c(C)c1 [Compound 629]	< 50	> 200
Cc1cc(=O)[nH]cc1-c1ccc2c(c1)OCC(=O)N2C [Compound 563]	< 50	< 50
Cn1cc(-c2cn(-c3ccc(C#N)cc3)c(=O)c3cccnc23)cn1 [Compound 395]	50 to 200	50 to 200
Cc1cc(=O)n(-c2cccc(NC(N)=O)c2)cc1-c1ccc(F)cc1 [Compound 188]	< 50	< 50
Cc1cc(=O)n(-c2ccc(OC(F)(F)F)cc2)cc1-c1ccc2c(c1)NC(=O)CO2 [Compound 209]	< 50	< 50
Cc1cc(=O)n(-c2ccc(OC(F)(F)F)cc2)cc1-c1ccc2oc(=O)[nH]c2c1 [Compound 553]	< 50	< 50
CCOc1ccc(-n2cc(-c3cn[nH]c3)c3nccnc3c2=O)c(C)c1 [Compound 574]	< 50	< 50
Cn1cc(-c2cn(-c3ccc(OC(F)(F)F)cc3)c(=O)c3[nH]ccc23)cn1 [Compound 603]	< 50	< 50
CCn1nnc2c(=O)n(-c3ccc(OC(F)(F)F)cc3)cc(-c3cnn(C)c3)c21 [Compound 624]	< 50	< 50
Cc1cc(=O)n(-c2ccc(Cl)cc2C)cc1-c1cnn(C)c1 [Compound 229]	50 to 200	< 50
Cc1cc(=O)n(-c2ccc(OC(F)(F)F)cc2)cc1-c1ccc(-c2cncs2)cc1 [Compound 206]	50 to 200	< 50
Cn1cc(-c2c[nH]c(=O)cc2NCc2ccccn2)cn1 [Compound 544]	50 to 200	< 50
Cc1cc(=O)n(-c2ccc(OC(C)C)cc2C)cc1-c1cnn(C)c1 [Compound 234]	> 200	> 200
Cc1ccc(=O)n(CCc2ccccc2)c1 [Compound 80]	50 to 200	> 200
O=c1c2[nH]nnc2c(-c2ccc(F)cc2)cn1-c1ccc(OC(F)(F)F)cc1 [Compound 681]	50 to 200	< 50
Cn1cc(-c2cn(-c3ccc(OC(F)(F)F)cc3)c(=O)cc2C#N)cn1 [Compound 402]	< 50	> 200
CCOc1ccc(-n2cc(-c3cn[nH]c3)ccc2=O)c(C)c1 [Compound 376]	< 50	> 200
CCOc1ccc(-n2cc(-c3cnn(C)c3)c(OC)cc2=O)c(C)c1 [Compound 162]	< 50	< 50
Cn1cc(-c2cn(-c3ccc(OC(F)(F)F)cc3)c(=O)cc2NCc2ccccc2)cn1 [Compound 123]	< 50	< 50
CCOc1ccc(-n2cc(Br)c3nccnc3c2=O)c(C)c1 [Compound 61]	< 50	< 50

Structure (SMILES)	EC50 [1] [µM]	IC50 [2] [µM]
O=c1cc(Cl)c(-c2ccc(F)cc2)cn1-c1ccc(OC(F)(F)F)cc1 [Compound 87]	< 50	< 50
Cc1ccc(=O)n(-c2ccc(OC(F)(F)F)cc2)n1 [Compound 360]	< 50	50 to 200
Cc1ccc(=S)n(-c2ccc(OC(F)(F)F)cc2)c1 [Compound 333]	50 to 200	> 200
Cc1nc2c(=O)n(-c3ccc(OC(F)(F)F)cc3)ccc2o1 [Compound 570]	> 200	> 200
Cc1cc(=O)n(-c2ccc(OC(F)(F)F)cc2)cc1-c1ccc(Cl)c(F)c1 [Compound 198]	50 to 200	< 50
CN(Cc1ccccc1)c1cc(=O)n(-c2ccc(OC(F)(F)F)cc2)cc1-c1cnn(C)c1 [Compound 126]	< 50	< 50
CCn1cc2c(-c3cnn(C)c3)cn(-c3ccc(OC(F)(F)F)cc3)c(=O)c2n1 [Compound 657]	< 50	< 50
Cn1cc(-c2cn(-c3ccc(OC(F)(F)F)cc3)c(=O)c3scnc23)cn1 [Compound 583]	< 50	< 50
CC(C)c1ccc(=O)n(-c2ccccc2)c1 [Compound 285]	> 200	> 200
COCCn1ccc2c(-c3cnn(C)c3)cn(-c3ccc(OC(F)(F)F)cc3)c(=O)c21 [Compound 651]	< 50	< 50
Cn1cc(-c2cn(-c3ccc(OC(F)(F)F)cc3)c(=O)cc2Oc2cccc(Cl)c2)cn1 [Compound 413]	< 50	< 50
Cc1cc(=O)n(-c2ccc(OC(F)(F)F)cc2)cc1-c1ccc2nonc2c1 [Compound 259]	50 to 200	< 50
CCOc1ccc(-n2cc(-c3cnn(C)c3)c(OCCOC)cc2=O)c(C)c1 [Compound 550]	< 50	< 50
CCn1nnc2c(-c3cnn(C)c3)cn(-c3ccc(OC(F)(F)F)cc3)c(=O)c21 [Compound 625]	< 50	< 50
CCOc1ccc(-n2cc(-c3cnn(C)c3)c(Oc3ccccc3)cc2=O)c(C)c1 [Compound 403]	< 50	< 50
O=c1ccc2c(n1-c1ccc(OC(F)(F)F)cc1)CCC2 [Compound 28]	50 to 200	50 to 200
Cc1cc(=O)n(-c2ccc(Cl)cc2)cc1-c1ccnnc1 [Compound 432]	> 200	50 to 200
CC(=O)c1ccc(=O)n(-c2ccc(F)cc2)c1 [Compound 13]	> 200	> 200
Cc1n[nH]c(C)c1-c1ccc(=O)n(-c2ccc(OC(F)(F)F)cc2)c1 [Compound 383]	50 to 200	50 to 200
Cn1cc(-c2cn(-c3ccc(OC(F)(F)F)cc3)c(=O)c3c2ncn3C)cn1 [Compound 665]	< 50	50 to 200
